The target of test [1] is Cytochrome P450 2C19 (Homo sapiens, UniProt P33261).
Test [2] concerns the target T1, Androgen receptor (Rattus norvegicus, UniProt P15207).
T1 sequence (P15207 whole entry): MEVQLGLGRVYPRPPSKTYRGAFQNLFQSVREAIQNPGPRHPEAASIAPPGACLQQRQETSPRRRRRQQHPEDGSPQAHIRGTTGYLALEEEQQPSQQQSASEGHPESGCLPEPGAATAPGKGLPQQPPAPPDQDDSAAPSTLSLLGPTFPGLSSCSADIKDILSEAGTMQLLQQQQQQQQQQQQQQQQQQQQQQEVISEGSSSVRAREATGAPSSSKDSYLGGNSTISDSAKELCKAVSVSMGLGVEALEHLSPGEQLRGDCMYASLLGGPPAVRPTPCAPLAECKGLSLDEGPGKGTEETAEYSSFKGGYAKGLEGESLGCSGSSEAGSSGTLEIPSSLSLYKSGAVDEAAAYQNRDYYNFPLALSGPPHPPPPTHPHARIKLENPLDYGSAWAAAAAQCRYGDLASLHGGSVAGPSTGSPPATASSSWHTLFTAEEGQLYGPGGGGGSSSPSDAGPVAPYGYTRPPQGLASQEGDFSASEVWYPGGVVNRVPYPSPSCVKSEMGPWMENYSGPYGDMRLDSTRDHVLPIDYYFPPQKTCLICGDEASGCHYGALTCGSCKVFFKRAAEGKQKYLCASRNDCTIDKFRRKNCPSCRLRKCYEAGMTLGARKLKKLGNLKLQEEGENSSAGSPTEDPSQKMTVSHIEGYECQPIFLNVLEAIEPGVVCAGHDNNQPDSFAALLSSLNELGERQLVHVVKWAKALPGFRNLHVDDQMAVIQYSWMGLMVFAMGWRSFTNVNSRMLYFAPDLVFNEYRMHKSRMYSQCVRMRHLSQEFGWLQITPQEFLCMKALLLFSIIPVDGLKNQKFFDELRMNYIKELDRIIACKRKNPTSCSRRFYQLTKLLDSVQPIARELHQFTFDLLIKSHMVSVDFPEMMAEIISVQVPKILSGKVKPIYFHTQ

In test [3] the target is Voltage-gated inwardly rectifying potassium channel KCNH2 (Homo sapiens, UniProt Q12809).
In test [4] the target is Cytochrome P450 2C9 (Homo sapiens, UniProt P11712).

Each structure is given as a SMILES string.

Voltage-gated inwardly rectifying potassium channel KCNH2, sequence (Q12809 whole entry): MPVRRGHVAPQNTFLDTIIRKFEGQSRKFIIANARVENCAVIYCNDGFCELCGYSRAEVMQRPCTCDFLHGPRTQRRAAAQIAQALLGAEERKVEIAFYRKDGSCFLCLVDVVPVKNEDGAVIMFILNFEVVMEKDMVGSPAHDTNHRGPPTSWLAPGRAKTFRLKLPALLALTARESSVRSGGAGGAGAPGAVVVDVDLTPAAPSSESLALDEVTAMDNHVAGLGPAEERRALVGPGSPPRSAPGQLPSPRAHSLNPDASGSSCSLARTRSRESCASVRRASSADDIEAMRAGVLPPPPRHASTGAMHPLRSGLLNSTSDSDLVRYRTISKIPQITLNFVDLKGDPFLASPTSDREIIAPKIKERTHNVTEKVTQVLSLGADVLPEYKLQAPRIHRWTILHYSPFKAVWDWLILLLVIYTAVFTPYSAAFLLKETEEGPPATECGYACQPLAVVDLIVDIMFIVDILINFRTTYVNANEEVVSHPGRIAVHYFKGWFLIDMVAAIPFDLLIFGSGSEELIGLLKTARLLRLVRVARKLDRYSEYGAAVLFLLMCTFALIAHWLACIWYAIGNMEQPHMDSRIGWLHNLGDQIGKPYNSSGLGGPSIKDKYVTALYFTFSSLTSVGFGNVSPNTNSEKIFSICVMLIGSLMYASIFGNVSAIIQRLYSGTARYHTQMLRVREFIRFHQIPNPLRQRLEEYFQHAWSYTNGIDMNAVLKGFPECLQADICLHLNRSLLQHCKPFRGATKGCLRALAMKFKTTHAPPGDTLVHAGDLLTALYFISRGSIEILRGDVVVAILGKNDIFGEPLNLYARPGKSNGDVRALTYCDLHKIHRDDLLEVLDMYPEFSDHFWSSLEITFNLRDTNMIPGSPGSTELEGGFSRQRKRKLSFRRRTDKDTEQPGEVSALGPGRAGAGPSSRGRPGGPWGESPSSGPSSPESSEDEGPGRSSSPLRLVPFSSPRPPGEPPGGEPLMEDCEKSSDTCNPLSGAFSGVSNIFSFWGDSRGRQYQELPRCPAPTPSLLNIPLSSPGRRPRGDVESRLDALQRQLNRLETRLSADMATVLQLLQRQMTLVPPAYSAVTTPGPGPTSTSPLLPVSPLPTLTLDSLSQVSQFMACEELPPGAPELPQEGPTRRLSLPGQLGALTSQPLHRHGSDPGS
Cytochrome P450 2C9, sequence (P11712 whole entry): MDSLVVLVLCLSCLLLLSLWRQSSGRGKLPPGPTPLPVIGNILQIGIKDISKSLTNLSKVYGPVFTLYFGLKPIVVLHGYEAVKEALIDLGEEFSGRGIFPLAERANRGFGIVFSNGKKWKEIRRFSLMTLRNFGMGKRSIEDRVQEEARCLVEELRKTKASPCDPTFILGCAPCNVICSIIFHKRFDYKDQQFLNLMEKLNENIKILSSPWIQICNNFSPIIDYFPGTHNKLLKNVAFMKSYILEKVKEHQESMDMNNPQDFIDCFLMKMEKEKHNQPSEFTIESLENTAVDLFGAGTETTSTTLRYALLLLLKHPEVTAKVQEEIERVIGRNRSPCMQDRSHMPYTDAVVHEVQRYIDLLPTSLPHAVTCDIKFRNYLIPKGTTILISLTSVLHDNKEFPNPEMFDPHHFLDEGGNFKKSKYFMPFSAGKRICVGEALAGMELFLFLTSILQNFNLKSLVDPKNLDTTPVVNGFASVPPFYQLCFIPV
Cytochrome P450 2C19, sequence (P33261 whole entry): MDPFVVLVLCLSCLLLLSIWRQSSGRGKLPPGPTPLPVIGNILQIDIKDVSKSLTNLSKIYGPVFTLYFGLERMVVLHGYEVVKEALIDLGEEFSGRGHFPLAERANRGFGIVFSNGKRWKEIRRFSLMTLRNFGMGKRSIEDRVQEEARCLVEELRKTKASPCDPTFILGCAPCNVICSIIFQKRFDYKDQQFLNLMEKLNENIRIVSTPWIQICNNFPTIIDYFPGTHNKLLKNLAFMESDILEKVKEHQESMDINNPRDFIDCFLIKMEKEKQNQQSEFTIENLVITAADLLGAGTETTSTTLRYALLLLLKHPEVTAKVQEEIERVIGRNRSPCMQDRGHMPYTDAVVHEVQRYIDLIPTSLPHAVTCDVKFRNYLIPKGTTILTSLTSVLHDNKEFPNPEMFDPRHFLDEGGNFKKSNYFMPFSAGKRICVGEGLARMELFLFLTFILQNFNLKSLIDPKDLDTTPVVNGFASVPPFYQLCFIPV

Compound `Clc1ccc(COC(Cn2ccnc2)c2ccc(Cl)cc2Cl)cc1` (stereo not drawn) [ECONAZOLE] came in with an IC50 in test [1] of 0.04 µM. This lies in the double-digit nanomolar range. Take `C[C@H]1C[C@@H]2[C@H]([C@@H](O)C[C@@]3(C)[C@H]2CC[C@]3(O)C(=O)CO)[C@@]2(C)C=CC(=O)C=C12` [METHYLPREDNISOLONE]: in test [2], the IC50 was found to be 26.7 µM and affinity was put at a Ki of 17.8 µM. In test [3], `CN[C@H]1CC[C@@H](c2ccc(Cl)c(Cl)c2)c2ccccc21` [SERTRALINE] returned an IC50 of 8.32 µM and a Ki of 6.81 µM. Besides, the IC50 in test [1] stood at 1 µM. On to `NC(=O)N1C(=O)/C(=C(\O)c2cccs2)c2cc(Cl)ccc21` [TENIDAP], for which the IC50 in test [4] is 0.7 µM. On the same count and under the same terms, the value for `O=C(Nc1ccc(Br)cc1)c1cc(Br)cc(Br)c1O` [TRIBROMSALAN] was 2 µM.

For the origin of these results see ChEMBL document CHEMBL1909046, “DrugMatrix in vitro pharmacology data”.
